Experimental data as given in patent US20040002447A1, “Induction of insulin expression” (REGENTS OF THE UNIVERSITY OF CALIFORNIA, priority 2002, published 2004).

Columns and labels:
[1] = system: insulin gene expression in TRM-6/PDX-1/NeuroD1 cells; experiment: Insulin mRNA expression by RT-PCR in monolayer TRM-6/PDX-1/NeuroD1 cells; assay type: cell-based, human
Experimental: FIG. 1 illustrates induction of insulin expression resulting from treatment with trichostatin A (TSA). Insulin mRNA was analyzed by RT-PCR. RT-PCR for the housekeeping gene porphobilinogen deaminase was performed to ensure that equal amounts of cDNA were used. The experiment has been repeated three times and the figure shown here is representative.
Monolayer cultures of TRM-6/PDX-1 also expressing the transcription factor NeuroD 1 (BETA2) express low levels of insulin gene expression.

[2] = system: insulin promoter (CAT reporter) in HeLa cells; experiment: Insulin promoter CAT reporter activity in HeLa cells transformed with PDX-1; assay type: cell-based; settings: HeLa cells transformed with PDX-1 and insulin promoter-CAT plasmid (FIG. 2)
Experimental: FIG. 2 is a bar graph illustrating expression of an insulin promoter in HeLa cells transformed with PDX-1. The graph illustrates differences in expression from the insulin promoter in the presence or absence of the histone deacetylase inhibitor TSA. Insulin promoter activity was determined based on expression of chloramphenicol acetyl transferase (CAT) reporter activity.
In addition, expression of an insulin promoter in HeLa cells was tested for the effect of the histone deacetylase inhibitor TSA on insulin expression. HeLa cells were transformed with PDX-1 and a plasmid comprising a portion of the insulin promoter operably linked to the chloramphenicol acetyl transferase (CAT) reporter gene. The effect of TSA and PDX-1 on insulin expression was then tested. As FIG. 2 illustrates, cells contacted with TSA had approximately 14 times the expression of cells not contacted with TSA.

[3] = system: somatostatin gene expression in TRM-6/PDX-1 cells; experiment: Somatostatin mRNA expression by RT-PCR in monolayer TRM-6/PDX-1 cells; assay type: cell-based, human; settings: approximately 24 hours; for somatastatin mRNA expression (effect in words): TRM-6 cells expressing PDX-1, monolayer cultures
Experimental: The cells were incubated with the inhibitor for approximately 24 hours and then expression of somatastatin expression was measured with RT-PCR. As little as 66 nM TSA lead to an increase in somatastatin induction, with a maximal induction at 6.6. μM of TSA.

Structure (SMILES): CC(/C=C/C(=O)NO)=C\[C@@H](C)C(=O)c1ccc(N(C)C)cc1 [TSA, trichostatin A]
- insulin expression (effect in words) ([1]; 3.3 μM for 24 hours, TRM-6/PDX-1/NeuroD1 monolayer, RT-PCR (FIG. 1)): greatly increases insulin expression
- insulin gene expression in TRM-6 cells (summary statement) ([1]; TRM-6 cells): induced insulin gene expression
- insulin promoter expression relative to cells not contacted with TSA [2]: approximately 14 times
- concentration giving maximal somatastatin induction ([3]; TRM-6/PDX-1 monolayer): 6.6 µM
- lowest TSA concentration leading to an increase in somatastatin induction ([3]; TRM-6/PDX-1 monolayer): 66 nM
- somatastatin mRNA expression (effect in words) [3]: bypassed the need for cell-cell contact to achieve high levels of somatostatin gene expression
- somatastatin mRNA expression (effect in words) ([3]; listed as trichostatin A): induced somatastatin mRNA expression
